# Measured values as given in patent publication US12428406B2 (PMV Pharmaceuticals, Inc., priority 2019, dated 2025).
# Target: T1, p53 Y220C (Homo sapiens, UniProt P04637, Y220C)
# T1 construct: The recombinant protein was a truncation mutant containing only amino acids 94-312 of p53; made in house; host or cells: E. coli
# Test: In vitro DNA binding activity assay (HTRF / TR-FRET): stabilization of p53 Y220C and increase of its DNA binding activity
# Type: biochemical
# Conditions: recombinant His-tagged p53 Y220C DNA binding domain (aa 94-312), biotin-labeled consensus DNA, incubated at 27° C. or 29° C. for 60 min
# Outline: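 Test compounds, diluted 3-fold in DMSO from 4.5 mM stocks, were incubated with bacterially expressed His-tagged p53 Y220C at room temperature for 15 min, and after a further step for 20 min. DNA binding was detected by time-resolved FRET between APC and europium labels. SC150 marks the concentration increasing binding by 50%.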
# T1 sequence (P04637 94-312, change not shown): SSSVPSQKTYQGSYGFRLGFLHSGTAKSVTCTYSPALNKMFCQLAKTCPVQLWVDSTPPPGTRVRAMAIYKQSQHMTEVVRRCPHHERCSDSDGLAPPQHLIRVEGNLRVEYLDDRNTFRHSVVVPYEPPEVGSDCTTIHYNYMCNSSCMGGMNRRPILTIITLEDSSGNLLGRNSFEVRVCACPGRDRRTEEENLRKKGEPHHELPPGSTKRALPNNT
row,Structure (SMILES),SC150 (concentration of the compound required to increase the DNA binding activity by 50%)
1,"COc1cc(S(C)(=O)=O)ccc1NCC#Cc1cc2c(N[C@H]3CCN(CCO)C[C@H]3F)cccc2n1CC(F)(F)F [Compound 854A, 2-[(3R,4S)-3-fluoro-4-[(2-{3-[(4-methanesulfonyl-2-methoxyphenyl)amino]prop-1-yn-1-yl}-1-(2,2,2-trifluoroethyl)-1H-indol-4-yl)amino]piperidin-1-yl]ethan-1-ol]",+ (+ = 0 μM ≤ SC150 < 0.05 μM)
2,"COc1cc(S(=O)(=O)N2CC3(COC3)C2)ccc1NCC#Cc1cc2c(NC3CCS(=O)(=O)CC3)cccc2n1CC(F)(F)F [Compound 1047A, 4-[(2-{3-[(2-methoxy-4-{2-oxa-6-azaspiro[3.3]heptane-6-sulfonyl}phenyl)amino]prop-1-yn-1-yl}-1-(2,2,2-trifluoroethyl)-1H-indol-4-yl)amino]-1λ^6-thiane-1,1-dione]",+ (+ = 0 μM ≤ SC150 < 0.05 μM)
3,"COCCOc1cc(S(C)(=O)=O)ccc1NCC#Cc1cc2c(NC3CCN(CC(O)COC)CC3)cccc2n1CC(F)(F)F (stereo not shown) [Compound 637A, 1-(4-{[2-(3-{[4-methanesulfonyl-2-(2-methoxyethoxy)phenyl]amino}prop-1-yn-1-yl)-1-(2,2,2-trifluoroethyl)-1H-indol-4-yl]amino}piperidin-1-yl)-3-methoxypropan-2-ol]",+ (+ = 0 μM ≤ SC150 < 0.05 μM)
4,"COc1cc(S(C)(=O)=O)ccc1NCC#Cc1cc2c(N[C@H]3CCN(C)C[C@H]3OC)cccc2n1CC(F)(F)F [Compound 531A, 2-{3-[(4-methanesulfonyl-2-methoxyphenyl)amino]prop-1-yn-1-yl}-N-[(3R,4S)-3-methoxy-1-methylpiperidin-4-yl]-1-(2,2,2-trifluoroethyl)-1H-indol-4-amine]",++ (++ = 0.05 μM ≤ SC150 < 0.1 μM)
5,"CC(C)C(=O)Oc1cc(S(C)(=O)=O)ccc1NCC#Cc1cc2c(N[C@H]3CC[C@@H](N4CC5(COC5)C4)CC3)cccc2n1CC(F)(F)F [Compound 224A, 5-methanesulfonyl-2-{[3-(4-{[(1S,4S)-4-{2-oxa-6-azaspiro[3.3]heptan-6-yl}cyclohexyl]amino}-1-(2,2,2-trifluoroethyl)-1H-indol-2-yl)prop-2-yn-1-yl]amino}phenyl 2-methylpropanoate]",+ (+ = 0 μM ≤ SC150 < 0.05 μM)
6,"C=C(C#N)Cn1c(C#CCNc2ccc(S(C)(=O)=O)cc2OC)cc2c(N[C@H]3CC[C@H](N(C)C)CC3)cccc21 [Compound 78A, 2-[(2-{3-[(4-methanesulfonyl-2-methoxyphenyl)amino]prop-1-yn-1-yl}-4-{[(1R,4R)-4-(dimethylamino)cyclohexyl]amino}-1H-indol-1-yl)methyl]prop-2-enenitrile]",+++ (+++ = 0.1 μM ≤ SC150 < 0.2 μM)
7,"CCS(=O)(=O)c1ccc(NCC#Cc2cc3c(N[C@H]4CC[C@@H](N5CC6(CCOCC6)C5)CC4)cccc3n2CC(F)(F)F)c(OC)c1 [Compound 315A, 2-(3-{[4-(ethanesulfonyl)-2-methoxyphenyl]amino}prop-1-yn-1-yl)-N-[(1S,4S)-4-{7-oxa-2-azaspiro[3.5]nonan-2-yl}cyclohexyl]-1-(2,2,2-trifluoroethyl)-1H-indol-4-amine]",+ (+ = 0 μM ≤ SC150 < 0.05 μM)
8,"COC[C@H](O)CN1CCC(Nc2cccc3c2cc(C#CCNc2ccc(S(C)(=O)=O)cc2OCF)n3CC(F)(F)F)CC1 [Compound 667A, (2R)-1-(4-{[2-(3-{[2-(fluoromethoxy)-4-methanesulfonylphenyl]amino}prop-1-yn-1-yl)-1-(2,2,2-trifluoroethyl)-1H-indol-4-yl]amino}piperidin-1-yl)-3-methoxypropan-2-ol]",+ (+ = 0 μM ≤ SC150 < 0.05 μM)
9,"CC(C)C(=O)Oc1cc(S(C)(=O)=O)ccc1NCC#Cc1cc2c(N[C@H]3CC[C@H](N4CC5(COC5)C4)CC3)cccc2n1CC(F)(F)F [Compound 228A, 5-methanesulfonyl-2-{[3-(4-{[(1R,4R)-4-{2-oxa-6-azaspiro[3.3]heptan-6-yl}cyclohexyl]amino}-1-(2,2,2-trifluoroethyl)-1H-indol-2-yl)prop-2-yn-1-yl]amino}phenyl 2-methylpropanoate]",+ (+ = 0 μM ≤ SC150 < 0.05 μM)
10,"COc1cc(S(C)(=O)=O)ccc1NCC#Cc1cc2c(NC3CCN(CCOC(=O)C(C)C)CC3)cccc2n1CC(F)(F)F [Compound 584A, 2-{4-[(2-{3-[(4-methanesulfonyl-2-methoxyphenyl)amino]prop-1-yn-1-yl}-1-(2,2,2-trifluoroethyl)-1H-indol-4-yl)amino]piperidin-1-yl} ethyl 2-methylpropanoate]",+ (+ = 0 μM ≤ SC150 < 0.05 μM)
11,"COc1cc(C(=O)N2CC3(COC3)C2)ccc1NCC#Cc1cc2c(N[C@@H]3CCN(C)C[C@@H]3F)cccc2n1CC(F)(F)F [Compound 906A, N-[(3S,4R)-3-fluoro-1-methylpiperidin-4-yl]-2-{3-[(2-methoxy-4-{2-oxa-6-azaspiro[3.3]heptane-6-carbonyl}phenyl)amino]prop-1-yn-1-yl}-1-(2,2,2-trifluoroethyl)-1H-indol-4-amine]",+ (+ = 0 μM ≤ SC150 < 0.05 μM)

# Other lines, results leading:
row,SC150 (concentration of the compound required to increase the DNA binding activity by 50%),Structure (SMILES)
1,+ (+ = 0 μM ≤ SC150 < 0.05 μM),"COc1cc(C(N)=O)ccc1NCC#Cc1cc2c(N[C@H]3CC[C@H](N4CC5(COC5)C4)CC3)cccc2n1CC(F)(F)F [Compound 212A, 3-methoxy-4-{[3-(4-{[(1R,4R)-4-{2-oxa-6-azaspiro[3.3]heptan-6-yl}cyclohexyl]amino}-1-(2,2,2-trifluoroethyl)-1H-indol-2-yl)prop-2-yn-1-yl]amino}benzamide]"
2,+ (+ = 0 μM ≤ SC150 < 0.05 μM),CNC(=O)c1ccc(NCC#Cc2cc3c(NC4CCOCC4)cccc3n2CC(F)(F)F)c(OC)c1 [Compound 1003A]
3,+ (+ = 0 μM ≤ SC150 < 0.05 μM),"CNC(=O)c1ccc(NCC#Cc2cc3c(N[C@H]4CC[C@H](N5CCC6(CC5)COC6)CC4)cccc3n2CC(F)(F)F)c(OC)c1 [Compound 375A, 3-methoxy-N-methyl-4-{[3-(4-{[(1R,4R)-4-{2-oxa-7-azaspiro[3.5]nonan-7-yl}cyclohexyl]amino}-1-(2,2,2-trifluoroethyl)-1H-indol-2-yl)prop-2-yn-1-yl]amino}benzamide]"
4,+ (+ = 0 μM ≤ SC150 < 0.05 μM),"COc1cc(C(N)=O)c(F)cc1NCC#Cc1cc2c(N[C@H]3CC[C@H](N(C)C)CC3)cccc2n1CC(F)(F)F [Compound 132A, 4-((3-(4-(((1R,4R)-4-(dimethylamino)cyclohexyl)amino)-1-(2,2,2-trifluoroethyl)-1H-indol-2-yl)prop-2-yn-1-yl)amino)-2-fluoro-5-methoxybenzamide]"
5,+ (+ = 0 μM ≤ SC150 < 0.05 μM),"CCNC(=O)c1ccc(NCC#Cc2cc3c(N[C@H]4CC[C@@H](N(C)C)CC4)cccc3n2CC(F)(F)F)c(OC)c1 [Compound 102A, N-ethyl-3-methoxy-4-{[3-(4-{[(1S,4S)-4-(dimethylamino)cyclo-hexyl]amino}-1-(2,2,2-trifluoroethyl)-1H-indol-2-yl)prop-2-yn-1-yl]amino}benzamide]"
6,+ (+ = 0 μM ≤ SC150 < 0.05 μM),"COCCNC(=O)c1ccc(NCC#Cc2cc3c(N[C@H]4CCN(C)C[C@H]4F)cccc3n2CC(F)(F)F)c(OC)c1 (racemic) [Compound 814A, rac-4-{[3-(4-{[(3R,4S)-3-fluoro-1-methylpiperidin-4-yl]amino}-1-(2,2,2-trifluoroethyl)-1H-indol-2-yl)prop-2-yn-1-yl]amino}-3-methoxy-N-(2-methoxyethyl)benzamide]"
7,+ (+ = 0 μM ≤ SC150 < 0.05 μM),"COc1cc(C(=O)O)ccc1NCC#Cc1cc2c(NC3CCN(C4CC4)CC3)cccc2n1CC(F)(F)F [Compound 721A, 4-[(3-{4-[(1-cyclopropylpiperidin-4-yl)amino]-1-(2,2,2-trifluoroethyl)-1H-indol-2-yl}prop-2-yn-1-yl)amino]-3-methoxybenzoic acid]"
8,+ (+ = 0 μM ≤ SC150 < 0.05 μM),COCCN(C)[C@H]1CC[C@@H](Nc2cccc3c2cc(C#CCNc2ccc(S(C)(=O)=O)cc2OCC#N)n3CC(F)(F)F)CC1 [Compound 150A]
9,+ (+ = 0 μM ≤ SC150 < 0.05 μM),"CNC(=O)c1ccc(NCC#Cc2cc3c(N[C@H]4CC[C@@H](N(C)C)CC4)cccc3n2CC(F)(F)F)c(OCCOC)c1 [Compound 99A, 3-(2-methoxyethoxy)-N-methyl-4-{[3-(4-{[(1S,4S)-4-(dimethyl-amino)cyclohexyl]amino}-1-(2,2,2-trifluoroethyl)-1H-indol-2-yl)prop-2-yn-1-yl]amino}benzamide]"
10,+ (+ = 0 μM ≤ SC150 < 0.05 μM),"CNC(=O)c1ccc(NCC#Cc2cc3c(N[C@H]4CC[C@@H](N(C)CCOC)CC4)cccc3n2CC(F)(F)F)c(OC)c1 [Compound 152A, 3-methoxy-N-methyl-4-{[3-(4-{[(1S,4S)-4-[(2-methoxyethyl) (methyl)amino]cyclohexyl]amino}-1-(2,2,2-trifluoroethyl)-1H-indol-2-yl)prop-2-yn-1-yl]amino}benzamide]"
11,+ (+ = 0 μM ≤ SC150 < 0.05 μM),"CNC(=O)c1ccc(NCC#Cc2cc3c(N[C@H]4CC[C@H](N(C)C)CC4)cccc3n2CC(F)(F)F)c(OC)c1 [Compound 74A, 3-methoxy-N-methyl-4-{[3-(4-{[(1R,4R)-4-(dimethylamino)cyclohexyl]amino}-1-(2,2,2-trifluoroethyl)-1H-indol-2-yl)prop-2-yn-1-yl]amino}benzamide]"
